Tests used:
[1] = target: PI3K (p110a(E542K)/p85a)(h) (Homo sapiens, UniProt P42336, E542K); test: Kinase Profiler; assay type: biochemical
Description: (§1) The kinase profiler was performed by the company Eurofins (Discovery, Panlab and Cerep).

EGFR(T790M,L858R)(h) = EGFR(T790M,L858R)(h) (Homo sapiens, UniProt P00533, L858R/T790M); test: Kinase Profiler; assay type: biochemical
Description: as §1

GCN2(h) = GCN2(h) (Homo sapiens, UniProt Q9P2K8); test: Kinase Profiler; assay type: biochemical
Description: (§2) Blood cell counts, kinase profiler, safety screen, bacterial cytotoxicity, Ames, micronucleus assays were performed by the company Eurofins (France). The kinase profiler was performed by the company Eurofins (Discovery, Panlab and Cerep).

NDR2(h) = NDR2(h) (Homo sapiens, UniProt Q9Y2H1); test: Kinase Profiler; assay type: biochemical
Description: as §1

ZAP-70(h) = ZAP-70(h) (Homo sapiens, UniProt P43403); test: Kinase Profiler; assay type: biochemical
ZAP-70(h), sequence (P43403 whole entry): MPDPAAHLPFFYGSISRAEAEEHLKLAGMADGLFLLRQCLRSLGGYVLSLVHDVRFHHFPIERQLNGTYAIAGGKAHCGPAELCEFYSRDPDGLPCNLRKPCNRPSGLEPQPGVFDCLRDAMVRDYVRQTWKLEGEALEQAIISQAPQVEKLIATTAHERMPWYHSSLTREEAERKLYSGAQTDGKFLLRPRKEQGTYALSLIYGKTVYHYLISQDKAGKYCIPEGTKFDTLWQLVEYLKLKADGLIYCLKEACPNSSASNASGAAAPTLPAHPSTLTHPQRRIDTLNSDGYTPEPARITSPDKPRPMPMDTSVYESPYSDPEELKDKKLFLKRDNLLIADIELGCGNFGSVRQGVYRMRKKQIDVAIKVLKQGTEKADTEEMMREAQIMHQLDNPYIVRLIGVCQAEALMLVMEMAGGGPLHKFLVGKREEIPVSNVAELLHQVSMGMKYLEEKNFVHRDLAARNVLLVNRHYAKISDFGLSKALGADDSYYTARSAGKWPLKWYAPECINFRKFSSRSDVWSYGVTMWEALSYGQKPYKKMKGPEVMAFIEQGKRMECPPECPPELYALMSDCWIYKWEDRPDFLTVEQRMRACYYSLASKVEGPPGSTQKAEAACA
Description: as §1

NEK3(h) = NEK3(h) (Homo sapiens, UniProt P51956); test: Kinase Profiler; assay type: biochemical
Description: as §1

CDK2/cyclinE(h) = CDK2/cyclinE(h) (Homo sapiens, UniProt P24941); test: Kinase Profiler; assay type: biochemical
Description: as §2

HIPK1(h) = HIPK1(h) (Homo sapiens, UniProt Q86Z02); test: Kinase Profiler; assay type: biochemical
HIPK1(h), sequence (Q86Z02 whole entry): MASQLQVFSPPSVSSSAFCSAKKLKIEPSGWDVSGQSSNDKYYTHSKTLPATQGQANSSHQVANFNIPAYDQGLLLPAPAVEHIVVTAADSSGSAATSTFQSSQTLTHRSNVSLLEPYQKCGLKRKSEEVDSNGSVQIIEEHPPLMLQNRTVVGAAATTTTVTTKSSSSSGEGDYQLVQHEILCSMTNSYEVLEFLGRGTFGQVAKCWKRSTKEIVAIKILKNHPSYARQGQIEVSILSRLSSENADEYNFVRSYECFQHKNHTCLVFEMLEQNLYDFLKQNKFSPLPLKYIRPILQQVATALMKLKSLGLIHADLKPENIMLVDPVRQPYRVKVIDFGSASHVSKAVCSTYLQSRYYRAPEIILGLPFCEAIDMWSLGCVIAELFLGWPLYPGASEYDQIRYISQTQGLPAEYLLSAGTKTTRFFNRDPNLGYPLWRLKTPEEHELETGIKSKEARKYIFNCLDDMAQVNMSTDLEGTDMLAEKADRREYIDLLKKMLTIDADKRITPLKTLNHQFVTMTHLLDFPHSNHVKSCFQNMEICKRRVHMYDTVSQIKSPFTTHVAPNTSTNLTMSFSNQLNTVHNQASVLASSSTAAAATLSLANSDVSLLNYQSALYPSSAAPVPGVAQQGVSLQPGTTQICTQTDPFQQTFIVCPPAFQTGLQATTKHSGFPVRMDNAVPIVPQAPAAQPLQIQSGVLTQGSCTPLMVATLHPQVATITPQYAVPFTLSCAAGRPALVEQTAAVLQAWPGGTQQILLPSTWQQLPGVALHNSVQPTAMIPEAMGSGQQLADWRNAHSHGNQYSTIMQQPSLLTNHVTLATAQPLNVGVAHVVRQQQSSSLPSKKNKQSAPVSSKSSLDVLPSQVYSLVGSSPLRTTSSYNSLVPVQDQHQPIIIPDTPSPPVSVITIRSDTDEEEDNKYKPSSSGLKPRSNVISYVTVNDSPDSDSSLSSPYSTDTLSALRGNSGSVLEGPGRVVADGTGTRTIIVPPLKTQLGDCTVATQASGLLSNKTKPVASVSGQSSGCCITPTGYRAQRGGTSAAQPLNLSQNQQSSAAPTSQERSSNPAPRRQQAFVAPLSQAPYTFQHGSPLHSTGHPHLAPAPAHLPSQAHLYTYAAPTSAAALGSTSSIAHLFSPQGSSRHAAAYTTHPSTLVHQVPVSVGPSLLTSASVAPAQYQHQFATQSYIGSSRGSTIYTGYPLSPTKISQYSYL
Description: as §1

MAPK1(h) = MAPK1(h) (Homo sapiens, UniProt P27361); test: Kinase Profiler; assay type: biochemical
MAPK1(h), sequence (P27361 whole entry): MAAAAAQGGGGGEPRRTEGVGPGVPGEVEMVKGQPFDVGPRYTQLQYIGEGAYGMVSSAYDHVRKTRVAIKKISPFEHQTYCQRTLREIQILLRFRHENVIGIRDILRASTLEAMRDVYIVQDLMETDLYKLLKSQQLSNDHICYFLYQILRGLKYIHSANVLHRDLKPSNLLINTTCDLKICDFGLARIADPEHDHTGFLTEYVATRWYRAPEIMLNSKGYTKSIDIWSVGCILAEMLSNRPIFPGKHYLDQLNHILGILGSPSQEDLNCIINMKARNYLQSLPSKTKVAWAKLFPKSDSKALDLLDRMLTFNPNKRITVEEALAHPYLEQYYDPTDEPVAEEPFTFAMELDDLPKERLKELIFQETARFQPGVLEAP
Description: as §1

[2] = target: PI3K (p110a(E545K)/p85a)(m) (Mus musculus, UniProt P42337, E545K); test: Kinase Profiler; assay type: biochemical
Description: as §2

FGFR1(h) = FGFR1(h) (Homo sapiens, UniProt P11362); test: Kinase Profiler; assay type: biochemical
Description: as §1

[3] = Ames fluctuation test (2nd group); assay type: cell-based
Description: Data S3. Ames-fluctuation assay-A41.
Test Concentration Count Positive Significance Fisher Exact Test
(# of wells) (- to +++) (p-value)
Ames fluctuation test (TA100 + S9

TSSK4(h) = TSSK4(h) (Homo sapiens, UniProt Q6SA08); test: Kinase Profiler; assay type: biochemical
Description: as §1

MRCKγ(h) = MRCKγ(h) (Homo sapiens, UniProt Q6DT37); test: Kinase Profiler; assay type: biochemical
Description: as §1

MAK(h) = MAK(h) (Homo sapiens, UniProt P20794); test: Kinase Profiler; assay type: biochemical
Description: as §1

TTBK2(h) = TTBK2(h) (Homo sapiens, UniProt Q6IQ55); test: Kinase Profiler; assay type: biochemical
Description: as §1

VRK1(h) = VRK1(h) (Homo sapiens, UniProt Q99986); test: Kinase Profiler; assay type: biochemical
Description: as §1

RIPK1(h) = RIPK1(h) (Homo sapiens, UniProt Q13546); test: Kinase Profiler; assay type: biochemical
RIPK1(h), sequence (Q13546 whole entry): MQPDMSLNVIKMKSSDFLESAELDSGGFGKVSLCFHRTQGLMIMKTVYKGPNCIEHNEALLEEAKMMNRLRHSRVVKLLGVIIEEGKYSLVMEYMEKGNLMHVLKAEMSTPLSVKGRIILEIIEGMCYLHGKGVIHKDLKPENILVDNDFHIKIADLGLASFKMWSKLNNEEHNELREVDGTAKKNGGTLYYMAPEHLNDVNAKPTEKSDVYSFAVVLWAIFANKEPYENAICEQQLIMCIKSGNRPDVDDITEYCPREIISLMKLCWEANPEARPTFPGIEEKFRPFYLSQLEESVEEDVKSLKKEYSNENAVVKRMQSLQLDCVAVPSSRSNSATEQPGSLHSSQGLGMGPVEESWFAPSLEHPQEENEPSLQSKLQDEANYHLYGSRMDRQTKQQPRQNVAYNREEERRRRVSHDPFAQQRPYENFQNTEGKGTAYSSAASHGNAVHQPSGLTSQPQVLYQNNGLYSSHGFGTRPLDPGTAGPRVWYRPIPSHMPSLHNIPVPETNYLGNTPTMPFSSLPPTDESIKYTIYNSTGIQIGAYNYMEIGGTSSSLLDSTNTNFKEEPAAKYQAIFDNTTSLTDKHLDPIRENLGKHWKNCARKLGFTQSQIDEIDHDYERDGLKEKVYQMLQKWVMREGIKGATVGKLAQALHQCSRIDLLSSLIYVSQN
Description: as §1

PhKγ2(h) = PhKγ2(h) (Homo sapiens, UniProt P15735); test: Kinase Profiler; assay type: biochemical
Description: as §2

FAK(h) = FAK(h) (Homo sapiens, UniProt Q05397); test: Kinase Profiler; assay type: biochemical
Description: as §1

MAPKAP-K3(h) = MAPKAP-K3(h) (Homo sapiens, UniProt Q16644); test: Kinase Profiler; assay type: biochemical
MAPKAP-K3(h), sequence (Q16644 whole entry): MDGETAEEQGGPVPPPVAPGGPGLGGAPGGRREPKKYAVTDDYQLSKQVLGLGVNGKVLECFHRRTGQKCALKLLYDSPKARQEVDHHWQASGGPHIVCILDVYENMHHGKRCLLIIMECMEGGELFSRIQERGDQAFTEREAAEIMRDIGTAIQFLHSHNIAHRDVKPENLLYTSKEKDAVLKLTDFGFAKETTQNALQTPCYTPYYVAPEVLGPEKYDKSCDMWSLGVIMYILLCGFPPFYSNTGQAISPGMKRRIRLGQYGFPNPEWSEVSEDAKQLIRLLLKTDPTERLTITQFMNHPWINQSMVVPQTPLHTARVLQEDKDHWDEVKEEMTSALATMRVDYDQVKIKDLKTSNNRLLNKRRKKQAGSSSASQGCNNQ
Description: as §1

PI3K (p110b/p85a)(m) = PI3K (p110b/p85a)(m) (Mus musculus, UniProt Q8BTI9); test: Kinase Profiler; assay type: biochemical
Description: as §2

TAK1(h) = TAK1(h) (Homo sapiens, UniProt O43318); test: Kinase Profiler; assay type: biochemical
TAK1(h), sequence (O43318 1-303 limits assumed): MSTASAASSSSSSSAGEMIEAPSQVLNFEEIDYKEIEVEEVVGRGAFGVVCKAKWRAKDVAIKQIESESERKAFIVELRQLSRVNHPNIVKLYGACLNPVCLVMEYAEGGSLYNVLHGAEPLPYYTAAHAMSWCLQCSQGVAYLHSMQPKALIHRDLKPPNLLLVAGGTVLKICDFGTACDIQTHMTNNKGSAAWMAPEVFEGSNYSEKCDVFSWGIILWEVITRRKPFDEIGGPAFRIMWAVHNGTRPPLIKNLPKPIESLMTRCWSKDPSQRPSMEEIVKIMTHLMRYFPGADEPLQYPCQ
Description: as §2

Tachykinin NK1 = Tachykinin NK1 (Homo sapiens, UniProt P25103); test: Safety screen; assay type: binding
Description: Blood cell counts, kinase profiler, safety screen, bacterial cytotoxicity, Ames, micronucleus assays were performed by the company Eurofins (France).

BTK(R28H)(h) = BTK(R28H)(h) (Homo sapiens, UniProt Q06187, R28H); test: Kinase Profiler; assay type: biochemical
BTK(R28H)(h), sequence (Q06187 whole entry R28H): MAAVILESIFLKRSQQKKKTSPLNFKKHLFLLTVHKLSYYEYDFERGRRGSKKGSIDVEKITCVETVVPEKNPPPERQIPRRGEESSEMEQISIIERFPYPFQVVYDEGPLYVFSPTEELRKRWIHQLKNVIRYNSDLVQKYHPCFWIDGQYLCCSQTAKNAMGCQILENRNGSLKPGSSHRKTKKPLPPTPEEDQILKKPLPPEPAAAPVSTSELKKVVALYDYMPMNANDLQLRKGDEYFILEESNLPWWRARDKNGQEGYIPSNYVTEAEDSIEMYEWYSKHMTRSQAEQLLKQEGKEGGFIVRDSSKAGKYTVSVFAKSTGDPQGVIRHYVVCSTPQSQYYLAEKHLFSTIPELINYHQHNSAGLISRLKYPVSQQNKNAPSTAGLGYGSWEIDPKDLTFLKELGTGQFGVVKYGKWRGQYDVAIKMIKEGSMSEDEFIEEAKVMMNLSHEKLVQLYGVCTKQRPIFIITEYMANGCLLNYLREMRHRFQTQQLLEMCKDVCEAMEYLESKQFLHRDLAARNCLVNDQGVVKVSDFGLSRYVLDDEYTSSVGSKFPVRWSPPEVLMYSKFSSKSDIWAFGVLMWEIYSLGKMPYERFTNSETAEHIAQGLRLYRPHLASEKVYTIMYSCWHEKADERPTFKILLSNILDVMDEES
Description: as §2

EGFR(L861Q)(h) = EGFR(L861Q)(h) (Homo sapiens, UniProt P00533, L861Q); test: Kinase Profiler; assay type: biochemical
Description: as §1

B-Raf(V599E)(h) = B-Raf(V599E)(h) (Homo sapiens, UniProt P15056, V600E); test: Kinase Profiler; assay type: biochemical
Description: as §2

PKR(h) = PKR(h) (Homo sapiens, UniProt P19525); test: Kinase Profiler; assay type: biochemical
Description: as §1

DYRK1A(h) = DYRK1A(h) (Homo sapiens, UniProt Q13627); test: Kinase Profiler; assay type: biochemical
Description: as §2

CDK7/cyclinH/MAT1(h) = CDK7/cyclinH/MAT1(h) (Homo sapiens, UniProt P50613); test: Kinase Profiler; assay type: biochemical
Description: as §2

PDK1(h) = PDK1(h) (Homo sapiens, UniProt O15530); test: Kinase Profiler; assay type: biochemical
Description: as §2

STK16(h) = STK16(h) (Homo sapiens, UniProt O75716); test: Kinase Profiler; assay type: biochemical
Description: as §1

Abl (M351T)(h) = Abl (M351T)(h) (Homo sapiens, UniProt P00519, M351T); test: Kinase Profiler; assay type: biochemical
Description: as §1

Arg(m) = Arg(m) (Mus musculus, UniProt Q4JIM5); test: Kinase Profiler; assay type: biochemical
Description: as §2

[4] = system: Glutamate, NMDA, Polyamine; test: Safety screen; assay type: binding, rat
Description: as §2

Angiotensin AT1 = Angiotensin AT1 (Homo sapiens, UniProt P30556); test: Safety screen; assay type: binding
Description: as §2

SIK3(h) = SIK3(h) (Homo sapiens, UniProt Q9Y2K2); test: Kinase Profiler; assay type: biochemical
Description: as §1

TLK1(h) = TLK1(h) (Homo sapiens, UniProt Q9UKI8); test: Kinase Profiler; assay type: biochemical
Description: as §1

FGFR3(h) = FGFR3(h) (Homo sapiens, UniProt P22607); test: Kinase Profiler; assay type: biochemical
FGFR3(h), sequence (P22607 23-806): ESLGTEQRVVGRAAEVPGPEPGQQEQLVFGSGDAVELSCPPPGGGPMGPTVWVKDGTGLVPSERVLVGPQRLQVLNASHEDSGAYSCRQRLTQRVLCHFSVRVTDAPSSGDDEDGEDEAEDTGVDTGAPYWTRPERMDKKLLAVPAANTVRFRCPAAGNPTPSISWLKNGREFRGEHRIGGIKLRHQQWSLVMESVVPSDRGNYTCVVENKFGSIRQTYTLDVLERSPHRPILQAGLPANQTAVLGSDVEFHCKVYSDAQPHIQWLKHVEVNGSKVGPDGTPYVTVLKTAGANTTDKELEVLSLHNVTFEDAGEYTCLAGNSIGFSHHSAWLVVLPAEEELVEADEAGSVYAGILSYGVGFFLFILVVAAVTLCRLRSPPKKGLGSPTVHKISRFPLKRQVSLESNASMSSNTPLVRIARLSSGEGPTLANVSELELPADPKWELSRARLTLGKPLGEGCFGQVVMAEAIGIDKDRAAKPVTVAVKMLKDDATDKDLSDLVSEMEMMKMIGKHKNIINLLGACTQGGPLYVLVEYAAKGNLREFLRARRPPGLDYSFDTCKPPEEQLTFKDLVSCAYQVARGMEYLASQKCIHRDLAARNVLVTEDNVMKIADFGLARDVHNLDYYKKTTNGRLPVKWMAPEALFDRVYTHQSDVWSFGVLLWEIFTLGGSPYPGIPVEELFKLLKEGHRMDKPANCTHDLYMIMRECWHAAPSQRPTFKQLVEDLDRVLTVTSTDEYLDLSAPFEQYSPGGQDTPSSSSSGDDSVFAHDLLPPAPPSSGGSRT
Description: as §1

For `COc1ccc(OC)c(NS(=O)(=O)c2ccc(NC(=O)CCSc3ccc(C)cc3)cc2)c1` [Compound A41], which “Activity(%)” value [1] is on record?
The value was 105%.

And the “Activity(%)” value (EGFR(T790M,L858R)(h))?
The value was 104%.

What about the “Activity(%)” value (GCN2(h)) of the same compound?
Its value is 101%.

And the “Activity(%)” value (NDR2(h))?
The value was 112%.

What about the “Activity(%)” value (ZAP-70(h)) of the same compound?
Its value is 108%.

What about the “Activity(%)” value (NEK3(h)) of the same compound?
The value was 107%.

What about the “Activity(%)” value (CDK2/cyclinE(h)) of the same compound?
Its value is 100%.

What about the “Activity(%)” value (HIPK1(h)) of the same compound?
Its value is 110%.

What about the “Activity(%)” value (MAPK1(h)) of the same compound?
Its value is 103%.

And the “Activity(%)” value [2]?
Its value is 100%.

What about the “Activity(%)” value (FGFR1(h)) of the same compound?
The value was 83%.

What about the “Count Positive (# of wells)” value ([3]; 1.0E-04 M) of the same compound?
Its value is 0.

And the “Count Positive (# of wells)” value ([3]; 1.0E-05 M)?
Its value is 1.

What about the “Count Positive (# of wells)” value ([3]; 5.0E-05 M) of the same compound?
Its value is 0.

What about the “Count Positive (# of wells)” value ([3]; 5.0E-06 M) of the same compound?
The value was 3.

And the “Activity(%)” value (TSSK4(h))?
The value was 103%.

And the “Activity(%)” value (MRCKγ(h))?
The value was 97%.

What about the “Activity(%)” value (MAK(h)) of the same compound?
Its value is 117%.

What about the “Activity(%)” value (TTBK2(h)) of the same compound?
Its value is 106%.

What about the “Activity(%)” value (VRK1(h)) of the same compound?
The value was 103%.

And the “Activity(%)” value (RIPK1(h))?
Its value is 98%.

And the “Activity(%)” value (PhKγ2(h))?
Its value is 98%.

What about the “Activity(%)” value (FAK(h)) of the same compound?
The value was 111%.

What about the “Activity(%)” value (MAPKAP-K3(h)) of the same compound?
The value was 112%.

What about the “Activity(%)” value (PI3K (p110b/p85a)(m)) of the same compound?
The value was 101%.

What about the “Activity(%)” value (TAK1(h)) of the same compound?
Its value is 107%.

And the “% inh.” value (Tachykinin NK1)?
The value was 41%.

What about the “Activity(%)” value (BTK(R28H)(h)) of the same compound?
Its value is 102%.

What about the “Activity(%)” value (EGFR(L861Q)(h)) of the same compound?
Its value is 107%.

And the “Activity(%)” value (B-Raf(V599E)(h))?
Its value is 87%.

What about the “Activity(%)” value (PKR(h)) of the same compound?
The value was 101%.

And the “Activity(%)” value (DYRK1A(h))?
Its value is 93%.

And the “Activity(%)” value (CDK7/cyclinH/MAT1(h))?
Its value is 106%.

And the “Activity(%)” value (PDK1(h))?
Its value is 107%.

And the “Activity(%)” value (STK16(h))?
The value was 115%.

And the “Activity(%)” value (Abl (M351T)(h))?
The value was 111%.

And the “Activity(%)” value (Arg(m))?
Its value is 109%.

And the “% inh.” value [4]?
Its value is 19%.

What about the “% inh.” value (Angiotensin AT1) of the same compound?
The value was 17%.

What about the “Activity(%)” value (SIK3(h)) of the same compound?
The value was 106%.

What about the “Activity(%)” value (TLK1(h)) of the same compound?
The value was 102%.

And the “Activity(%)” value (FGFR3(h))?
The value was 89%.

From paper PMC12281424, “A Rac-specific competitive inhibitor of guanine nucleotide binding reduces metastasis in triple-negative breast cancer” (Cell Reports Medicine, 2025)
